In publication PMC7596334 (Redox Biology, 2020):

Biological target: T1, 15LOX2 (Homo sapiens, UniProt O15296)
T1 sequence (O15296 1-676): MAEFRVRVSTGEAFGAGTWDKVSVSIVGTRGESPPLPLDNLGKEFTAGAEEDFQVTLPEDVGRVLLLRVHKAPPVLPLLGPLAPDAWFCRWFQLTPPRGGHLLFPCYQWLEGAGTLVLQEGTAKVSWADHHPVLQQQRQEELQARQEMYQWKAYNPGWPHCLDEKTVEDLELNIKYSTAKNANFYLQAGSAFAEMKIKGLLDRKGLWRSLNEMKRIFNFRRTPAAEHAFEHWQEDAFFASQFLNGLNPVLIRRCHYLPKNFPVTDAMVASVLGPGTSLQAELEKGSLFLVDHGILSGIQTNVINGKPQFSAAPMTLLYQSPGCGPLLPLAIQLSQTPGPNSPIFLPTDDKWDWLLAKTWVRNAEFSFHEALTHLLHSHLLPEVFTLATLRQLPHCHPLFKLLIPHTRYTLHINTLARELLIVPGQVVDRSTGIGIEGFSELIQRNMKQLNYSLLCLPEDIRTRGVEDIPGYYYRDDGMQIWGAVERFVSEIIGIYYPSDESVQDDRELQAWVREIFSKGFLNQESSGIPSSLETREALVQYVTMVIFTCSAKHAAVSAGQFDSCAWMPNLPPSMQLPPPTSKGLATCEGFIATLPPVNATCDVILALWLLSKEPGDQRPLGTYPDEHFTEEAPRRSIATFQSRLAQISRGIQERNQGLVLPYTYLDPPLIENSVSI
T1 sequence (P30086 2-187 partner): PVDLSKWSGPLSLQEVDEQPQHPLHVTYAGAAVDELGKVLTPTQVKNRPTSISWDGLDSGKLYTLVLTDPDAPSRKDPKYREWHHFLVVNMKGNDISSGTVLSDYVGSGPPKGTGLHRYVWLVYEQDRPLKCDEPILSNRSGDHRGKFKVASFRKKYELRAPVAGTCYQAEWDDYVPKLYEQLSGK
Type: biochemical

IC50: 10.1 nM
Structure (SMILES): CCOC(=O)c1ccc(NC2CCCCC2)c(N)c1 [Fer-1, Ferrostatin-1]
